Experimental data as given in US9212151B2, “Heterocyclic compounds useful for kinase inhibition” (Amitech Therapeutic Solutions, Inc., priority 2010, dated 2015).

test system: not listed separately; assay: MTT cell viability assay, compounds at 5, 1 and 0.2 μM, 48 hours; format: cell-based; conditions: human, A549 tumor cells, 0.2 μM
How it was run: (§1)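 A549 cells were seeded at 2500/well in DMEM + 10% FBS, grown overnight, then exposed to compound for 48 h. Viability was read by MTT (5 mg/ml, 4 h), with formazan dissolved in DMSO and absorbance measured at 560/570 nm to give survival rate.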

Row | SMILES | viability at 48 h, 0.2 µM
1 | FC(F)(F)c1cccc(Nc2nnc(-c3ccc(Oc4ccnc5cc(OCc6ccccc6)ccc45)cc3)[nH]2)c1 [Compound 187] | > 70%
2 | COc1ccc2c(Oc3ccc(-c4nnc(Nc5cccc(C(F)(F)F)c5)[nH]4)cc3)cc(C)nc2c1 [Compound 188] | > 70%
3 | N#Cc1ccc2c(Oc3ccc(-c4nnc(Nc5cccc(C(F)(F)F)c5)[nH]4)cc3)ccnc2c1 [Compound 189] | > 70%
4 | CN(C)c1cc(Oc2ccc(-c3nnc(Nc4cccc(C(F)(F)F)c4)[nH]3)cc2)c2ccccc2n1 [Compound 190] | > 70%
5 | COc1ccc2nccc(Oc3cccc(-c4nnc(Nc5cccc(C(F)(F)F)c5)[nH]4)c3)c2c1 [Compound 191] | > 70%
6 | Fc1ccc2c(Oc3cccc(-c4nnc(Nc5cccc(C(F)(F)F)c5)[nH]4)c3)ccnc2c1 [Compound 192] | > 70%
7 | FC(F)(F)c1cccc(Nc2nnc(-c3cccc(Oc4ccnc5cc(OCc6ccccc6)ccc45)c3)[nH]2)c1 [Compound 193] | > 70%
8 | COc1ccc2c(Oc3cccc(-c4nnc(Nc5cccc(C(F)(F)F)c5)[nH]4)c3)cc(C)nc2c1 [Compound 194] | > 70%

same assay, conditions: human, A549 tumor cells, 0.2 μM compound

Row | SMILES | viability at 48 h, 0.2 µM
9 | CN(C)c1cc(Oc2ccc(-c3nnc(Nc4cccc(C(F)(F)F)c4)[nH]3)cc2)c2ccccc2n1 [Compound 196] | > 70%
10 | COc1ccc2c(Oc3cc(-c4nnc(Nc5cccc(C(F)(F)F)c5)[nH]4)ccc3C)ccnc2c1 [Compound 197] | > 70%
11 | COc1ccc2c(Oc3ccc(Nc4nnc(-c5cccc(Cl)c5)[nH]4)cc3)ccnc2c1 [Compound 198] | > 70%
12 | CSc1nc(N)cc(Oc2ccc(-c3cnc(Nc4cccc(C(F)(F)F)c4)[nH]3)cc2)n1 [Compound 199] | < 50%
13 | COc1ccc2c(Oc3ccc(-c4cnc(Nc5cccc(C(F)(F)F)c5)[nH]4)cc3)ccnc2c1 [Compound 200] | > 70%

same assay, conditions: human, A549 tumor cells, 1 μM

Row | SMILES | viability at 48 h, 1 µM
14 | FC(F)(F)c1cccc(Nc2nnc(-c3ccc(Oc4ccnc5cc(OCc6ccccc6)ccc45)cc3)[nH]2)c1 [Compound 187] | > 70%
15 | COc1ccc2c(Oc3ccc(-c4nnc(Nc5cccc(C(F)(F)F)c5)[nH]4)cc3)cc(C)nc2c1 [Compound 188] | > 70%
16 | N#Cc1ccc2c(Oc3ccc(-c4nnc(Nc5cccc(C(F)(F)F)c5)[nH]4)cc3)ccnc2c1 [Compound 189] | > 70%
17 | CN(C)c1cc(Oc2ccc(-c3nnc(Nc4cccc(C(F)(F)F)c4)[nH]3)cc2)c2ccccc2n1 [Compound 190] | > 70%
18 | COc1ccc2nccc(Oc3cccc(-c4nnc(Nc5cccc(C(F)(F)F)c5)[nH]4)c3)c2c1 [Compound 191] | > 70%
19 | Fc1ccc2c(Oc3cccc(-c4nnc(Nc5cccc(C(F)(F)F)c5)[nH]4)c3)ccnc2c1 [Compound 192] | > 70%
20 | FC(F)(F)c1cccc(Nc2nnc(-c3cccc(Oc4ccnc5cc(OCc6ccccc6)ccc45)c3)[nH]2)c1 [Compound 193] | > 70%
21 | COc1ccc2c(Oc3cccc(-c4nnc(Nc5cccc(C(F)(F)F)c5)[nH]4)c3)cc(C)nc2c1 [Compound 194] | > 70%

same assay, conditions: human, A549 tumor cells, 1 μM compound

Row | SMILES | viability at 48 h, 1 µM
22 | CN(C)c1cc(Oc2ccc(-c3nnc(Nc4cccc(C(F)(F)F)c4)[nH]3)cc2)c2ccccc2n1 [Compound 196] | > 70%
23 | COc1ccc2c(Oc3cc(-c4nnc(Nc5cccc(C(F)(F)F)c5)[nH]4)ccc3C)ccnc2c1 [Compound 197] | > 70%
24 | COc1ccc2c(Oc3ccc(Nc4nnc(-c5cccc(Cl)c5)[nH]4)cc3)ccnc2c1 [Compound 198] | > 70%
25 | CSc1nc(N)cc(Oc2ccc(-c3cnc(Nc4cccc(C(F)(F)F)c4)[nH]3)cc2)n1 [Compound 199] | < 50%
26 | COc1ccc2c(Oc3ccc(-c4cnc(Nc5cccc(C(F)(F)F)c5)[nH]4)cc3)ccnc2c1 [Compound 200] | > 70%

same assay, conditions: human, A549 tumor cells, 5 μM

Row | SMILES | viability at 48 h, 5 µM
27 | FC(F)(F)c1cccc(Nc2nnc(-c3ccc(Oc4ccnc5cc(OCc6ccccc6)ccc45)cc3)[nH]2)c1 [Compound 187] | > 70%
28 | COc1ccc2c(Oc3ccc(-c4nnc(Nc5cccc(C(F)(F)F)c5)[nH]4)cc3)cc(C)nc2c1 [Compound 188] | > 70%
29 | N#Cc1ccc2c(Oc3ccc(-c4nnc(Nc5cccc(C(F)(F)F)c5)[nH]4)cc3)ccnc2c1 [Compound 189] | > 70%
30 | CN(C)c1cc(Oc2ccc(-c3nnc(Nc4cccc(C(F)(F)F)c4)[nH]3)cc2)c2ccccc2n1 [Compound 190] | 50 to 70%
31 | COc1ccc2nccc(Oc3cccc(-c4nnc(Nc5cccc(C(F)(F)F)c5)[nH]4)c3)c2c1 [Compound 191] | > 70%
32 | Fc1ccc2c(Oc3cccc(-c4nnc(Nc5cccc(C(F)(F)F)c5)[nH]4)c3)ccnc2c1 [Compound 192] | > 70%
33 | FC(F)(F)c1cccc(Nc2nnc(-c3cccc(Oc4ccnc5cc(OCc6ccccc6)ccc45)c3)[nH]2)c1 [Compound 193] | > 70%
34 | COc1ccc2c(Oc3cccc(-c4nnc(Nc5cccc(C(F)(F)F)c5)[nH]4)c3)cc(C)nc2c1 [Compound 194] | > 70%

same assay, conditions: human, A549 tumor cells, 5 μM compound

Row | SMILES | viability at 48 h, 5 µM
35 | CN(C)c1cc(Oc2ccc(-c3nnc(Nc4cccc(C(F)(F)F)c4)[nH]3)cc2)c2ccccc2n1 [Compound 196] | 50 to 70%
36 | COc1ccc2c(Oc3cc(-c4nnc(Nc5cccc(C(F)(F)F)c5)[nH]4)ccc3C)ccnc2c1 [Compound 197] | > 70%
37 | COc1ccc2c(Oc3ccc(Nc4nnc(-c5cccc(Cl)c5)[nH]4)cc3)ccnc2c1 [Compound 198] | > 70%
38 | CSc1nc(N)cc(Oc2ccc(-c3cnc(Nc4cccc(C(F)(F)F)c4)[nH]3)cc2)n1 [Compound 199] | < 50%
39 | COc1ccc2c(Oc3ccc(-c4cnc(Nc5cccc(C(F)(F)F)c5)[nH]4)cc3)ccnc2c1 [Compound 200] | > 70%

test system: Tumor cells (A549); assay: as above; format: cell-based; conditions: 0.2 μM
How it was run: as §1

Row | SMILES | % Viability A549
40 | Cc1cc(Oc2cccc(-c3nnc(Nc4cccc(C(F)(F)F)c4)[nH]3)c2)nc(N)n1 [Compound 95] | +++ (+++: >70%)

same assay, conditions: 1 μM

Row | SMILES | % Viability A549
41 | Cc1cc(Oc2cccc(-c3nnc(Nc4cccc(C(F)(F)F)c4)[nH]3)c2)nc(N)n1 [Compound 95] | +++ (+++: >70%)

same assay, conditions: 5 μM

Row | SMILES | % Viability A549
42 | Cc1cc(Oc2cccc(-c3nnc(Nc4cccc(C(F)(F)F)c4)[nH]3)c2)nc(N)n1 [Compound 95] | ++ (++: 50-70%)
